From PMC11472313, “Development of Fragment-Based Inhibitors of the Bacterial Deacetylase LpxC with Low Nanomolar Activity” (Journal of Medicinal Chemistry, 2024)

Tests used:
[1] = molecular target: T1, E. coli LpxC C63A (Escherichia coli, UniProt P0A725, C63A); assay: fluorescence-based E. coli LpxC C63A enzyme inhibition assay; type: biochemical; details: Ki E. coli LpxC C63A, from IC50 via Cheng–Prusoff
T1 construct: made in house; host or cells: E. coli BL21(DE3)
Protocol: In order to determine the inhibitory activities of the compounds of interest toward E. coli LpxC, a fluorescence-based enzyme assay was deployed, in which the formed deacetylated natural product UDP-3-O-[(R)-3-hydroxymyristoyl]glucosamine (2) is transformed into a fluorescent isoindole with o-phthaldialdehyde and 2-mercaptoethanol.[48],[49] […] The KM of E. coli LpxC C63A was determined experimentally using a mass spectrometry-based LpxC assay (Figure S8, Supporting Information, vide infra).
A fluorescence-based microplate assay for LpxC activity was performed as described by Clements et al.[48] The wells in a black, nonbinding, 96-well fluorescence microplate (Greiner Bio One, Frickenhausen) were filled with 93 μL of 26.9 μM UDP-3-O-[(R)-3-hydroxymyristoyl]-N-acetylglucosamine in assay buffer [40 mM sodium morpholinoethanesulfonic acid (pH 6.0), 80 μM dithiothreitol, 0.02% Brij 35]. In order to assay the inhibitors at final concentrations from 20 nM up to 20 μM, 2 μL of a respective dilution of the compounds in DMSO were added. The addition of 5 μL of a solution of purified LpxC (10 μg mL^–1) in assay buffer led to final concentrations of 25 μM UDP-3-O-[(R)-3-hydroxymyristoyl]-N-acetylglucosamine, 15 nM E. coli LpxC C63A, 2% DMSO, and from 20 nM up to 20 μM inhibitor. The microplate was incubated for 30 min at 37 °C in a plate shaker. Then, the biochemical reaction was stopped by adding 40 μL of 0.625 M sodium hydroxide. The reaction mixture was further incubated for 10 min and neutralized by adding 40 μL of 0.625 M acetic acid. The deacetylated product UDP-3-O-[(R)-3-hydroxymyristoyl]glucosamine was converted into a fluorescing isoindole by adding 120 μL of an o-phthaldialdehyde-2-mercaptoethanol solution, which was prepared by dissolving 10 mg of o-phthaldialdehyde in 1 mL of methanol, diluting the mixture with 24 mL of a sodium borate buffer (0.1 M), and finally adding 2.5 μL of 2-mercaptoethanol.[49] Fluorescence was measured with a TriStar^2 S LB 942 plate reader (Berthold, Bad Wildbad) at 340 nm excitation and 460 nm emission wavelengths. Each assay was performed at least three times on separate days. The IC50 values were calculated via Probit-log concentration graphs with the aid of the software Origin and were subsequently converted into Ki values using the Cheng–Prusoff equation.[75],[76]

[2] = tested on: E. coli BL21(DE3); assay: MIC, broth microdilution; type: cell-based; details: Escherichia coli, 20 h, 37 °C, LB
Protocol: (§1) Besides measuring the inhibitory activities toward E. coli LpxC C63A, the antibacterial activities of the synthesized hydroxamic acids were evaluated by determining their minimal inhibitory concentrations (MIC) in broth dilution tests as well as by performing disc diffusion assays (Table 1).
(§2) The MIC values of the compounds were determined by means of the microdilution method using 96-well plates.
(§3) The overnight suspension was diluted 1:1000 in fresh LB. 10 μL of a 2-fold dilution series of the compounds in DMSO and 90 μL of LB were dispensed to each well of a 96-well plate. Then, 100 μL of the inoculated medium was added, resulting in 5 × 10^5 cfu mL^–1, 5% DMSO, and a final concentration range of the test compounds between 64 and 0.016 μg mL^–1. The plates were incubated for 20 h at 37 °C. The MIC was defined as the lowest concentration of the compounds that prevented visible growth after incubation. Each assay was performed at least three times on separate days.

[3] = tested on: E. coli D22; assay: MIC, broth microdilution; type: cell-based; details: Escherichia coli, 20 h, 37 °C, LB
Protocol: as §1, §2, §3

[4] = tested on: E. coli BL21(DE3); assay: disc diffusion assay; type: cell-based; details: 0.15 μmol per 6 mm disc
Protocol: as §1
(§4) The disc diffusion assays against E. coli BL21(DE3) and the defective strain E. coli D22 were performed as follows: liquid cultures of the bacteria were grown overnight in lysogeny broth (LB)[73] at 37 °C and 200 rpm. 150 μL of an overnight cell suspension was spread evenly onto LB agar plates. 0.15 μmol of each compound (dissolved in 10 or 15 μL DMSO) were applied onto circular filter paper (Ø = 6 mm, Cytiva). Pure DMSO, serving as a negative control, and CHIR-090, serving as a positive control, were also spotted. The agar plates were incubated overnight at 37 °C, and the diameter of the zone of growth inhibition was measured for each compound. Each assay was performed at least three times on separate days.

[5] = tested on: E. coli D22; assay: disc diffusion assay; type: cell-based; details: 0.15 μmol per 6 mm disc
Protocol: as §1, §4

[6] = tested on: LpxC–9 complex; assay: NMR-ILOE (interligand NOESY) of fragment hits with LpxC and 9; details: fragment hits binding the LpxC–9 complex by STD and WaterLogsy; 6 μM LpxC
Protocol: In order to find fragments specifically addressing the UDP-binding pocket, which can be linked to the LpxC inhibitors, a fragment screen was performed against LpxC bound to 9. First, 650 fragments in cocktails of five were tested for binding to the LpxC–9 complex using STD-NMR and WaterLogsy experiments. Then, fragment hits identified as potential binders were tested one by one against the LpxC–9 complex by STD-NMR and WaterLogsy experiments performed under identical experimental conditions. A total of 97 fragment hits were identified as binders, leading to a hit rate of 15%.
Then, NMR-ILOE experiments were performed with selected fragment hits in the presence of LpxC and the unsubstituted hydroxamic acid 9. This allowed the identification of fragments that bind in the enzyme’s UDP-binding pocket near the methylene group in the α-position of the inhibitor’s hydroxamate moiety. Weak interligand NOESY peaks were observed between inhibitor 9 and nine fragments. By contrast, no interligand NOESY peaks were observed between compound 9 and the other ten fragments. […] Unexpectedly, we also observed interligand NOESY between the fragment protons and protons of the morpholino moiety.
Standard 1D and STD NMR spectra were acquired at 20 °C with a Bruker 600 MHz NMR spectrometer equipped with a 5 mm cryoprobe. Parameters for the STD experiments (saturation frequency and saturation time) were identical for all samples. […] STD saturation time was 2 s. WaterLOGSY mixing time was 1.5 s. Two NOESY experiments were recorded with mixing times of 0.6 and 0.3 s. STD and WaterLOGSY spectra were recorded with the same NMR tubes containing 3 μM LpxC, compound 9 at 500 μM, and fragments at 500 μM. For NOESY experiments, NMR tubes contained 6 μM LpxC.
Temperature was set to 293 K for all NMR experiments.

T1 sequence (P0A725 whole entry C63A): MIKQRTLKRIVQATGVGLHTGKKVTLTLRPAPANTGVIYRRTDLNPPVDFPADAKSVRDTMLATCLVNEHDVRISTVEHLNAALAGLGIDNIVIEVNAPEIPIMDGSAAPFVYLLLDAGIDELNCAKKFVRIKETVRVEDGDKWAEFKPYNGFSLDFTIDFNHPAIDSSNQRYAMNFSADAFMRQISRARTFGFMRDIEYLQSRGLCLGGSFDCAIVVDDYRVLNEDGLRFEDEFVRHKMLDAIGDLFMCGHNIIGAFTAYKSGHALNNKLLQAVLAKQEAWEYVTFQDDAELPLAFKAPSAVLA

| SMILES | Inter-Ligand NOESY peaks between the fragment and 9 [6] | other results |
| --- | --- | --- |
| O=C(NO)[C@@H](CN(Cc1ccccc1)Cc1ccccc1)OCc1ccc(C#Cc2ccc(CN3CCOCC3)cc2)cc1 [(R)-37, (R)-3-(Dibenzylamino)-N-hydroxy-2-[(4-{[4-(morpholinomethyl)phenyl]ethynyl}benzyl)oxy]propanamide] | – | Ki [1]: > 2540 nM; MIC [2]: > 16 µg/mL; MIC [3]: > 16 µg/mL; Inhibition zone E. coli BL21(DE3) [4]: ≤6 mm; Inhibition zone E. coli D22 [5]: ≤6 mm |
| COc1ccc2[nH]ccc2c1 [F1] | yes | – |
| Oc1ccc(-n2ccnc2)cc1 [F2] | yes | – |
| c1ccc2[nH]ccc2c1 [F3] | yes | – |
| NC(=O)Cc1c[nH]c2ccc(Cl)cc12 [F4] | yes | – |
| c1ccc2c(c1)CCCN2 [F5] | yes | – |
| Nc1cnc2ccccc2c1 [F6] | yes | – |
| Nc1c2c(nc3ccccc13)CCCC2 [F7] | no | – |
| c1ccc(C2NCCn3cccc32)cc1 (centres unmarked) [F8] | no | – |
| OCc1ccc(-n2cccn2)cc1 [F9] | no | – |
| c1ccc(Nc2ccccn2)nc1 [F10] | no | – |
| NCc1ccc(-c2ccccc2)cc1 [F11] | yes | – |
| c1ccc2[nH]ncc2c1 [F12] | no | – |
